According to PMC4356362, “Interaction of the amyloid precursor protein-like protein 1 (APLP1) E2 domain with heparan sulfate involves two distinct binding modes” (Acta Crystallographica Section D: Biological Crystallography, 2015):

What was measured:
APLP1 E2 [1] = target: T1, APLP1 E2 (Homo sapiens, UniProt P51693); assay: thermal denaturation (Thermofluor, SYPRO Orange); type: binding; details: 10 µM protein, 50 µM oligosaccharide, phosphate pH 5.7, 100 mM NaCl; reference Tm without ligand 43.6 ± 0.2 °C
T1 construct: E2 domain, residues 290-495, secreted from Pichia pastoris (pPICZalpha), N-glycosylated fraction removed; dimeric arrangement in crystal
T1 sequence (P51693 290-495): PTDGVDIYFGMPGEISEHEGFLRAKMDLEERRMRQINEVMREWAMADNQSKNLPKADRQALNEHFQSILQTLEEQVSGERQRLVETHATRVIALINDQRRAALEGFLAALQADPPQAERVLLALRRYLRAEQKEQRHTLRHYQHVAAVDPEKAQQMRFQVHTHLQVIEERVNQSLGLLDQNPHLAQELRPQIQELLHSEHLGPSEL

APLP1 E2 [2] = target: T1, APLP1 E2; assay: X-ray co-crystal structure, […] Å; details: equimolar 0.5 mM; pH 6.1-6.3; two binding modes: chain a nonreducing end at dimer centre, chain b on one protomer
[3] = target: the molecule itself; assay: crystal structure; apo APLP1 E2, orthorhombic crystal form (P212121), 2.6 Å; crystals grown at 20°C in 0.1 M sodium citrate pH 5.6, 0.9 M (NH4)H2PO4, 25% glycerol; two molecules in the asymmetric unit

Molecule: O=C(O)C1=C[C@H](O)[C@@H](OS(=O)(=O)O)[C@H](O[C@H]2[C@H](O)[C@@H](NS(=O)(=O)O)[C@@H](O[C@H]3[C@H](O)[C@@H](OS(=O)(=O)O)[C@H](O[C@H]4[C@H](O)[C@@H](NS(=O)(=O)O)[C@@H](O[C@H]5[C@H](O)[C@@H](OS(=O)(=O)O)[C@H](O[C@H]6[C@H](O)[C@@H](NS(=O)(=O)O)[C@@H](O[C@H]7[C@H](O)[C@@H](OS(=O)(=O)O)[C@H](O[C@H]8[C@H](O)[C@@H](NS(=O)(=O)O)[C@@H](O[C@H]9[C@H](O)[C@@H](OS(=O)(=O)O)[C@H](O[C@H]%10[C@H](O)[C@@H](NS(=O)(=O)O)[C@@H](O[C@H]%11[C@H](O)[C@@H](OS(=O)(=O)O)[C@H](O[C@H]%12[C@H](O)[C@@H](NS(=O)(=O)O)[C@@H](O[C@H]%13[C@H](O)[C@@H](OS(=O)(=O)O)[C@H](O[C@H]%14[C@H](O)[C@@H](NS(=O)(=O)O)[C@@H](O[C@H]%15[C@H](O)[C@@H](OS(=O)(=O)O)[C@H](O[C@H]%16[C@H](O)[C@@H](NS(=O)(=O)O)C(O)O[C@@H]%16COS(=O)(=O)O)O[C@H]%15C(=O)O)O[C@@H]%14COS(=O)(=O)O)O[C@H]%13C(=O)O)O[C@@H]%12COS(=O)(=O)O)O[C@H]%11C(=O)O)O[C@@H]%10COS(=O)(=O)O)O[C@H]9C(=O)O)O[C@@H]8COS(=O)(=O)O)O[C@H]7C(=O)O)O[C@@H]6COS(=O)(=O)O)O[C@H]5C(=O)O)O[C@@H]4COS(=O)(=O)O)O[C@H]3C(=O)O)O[C@@H]2COS(=O)(=O)O)O1 (stereo partly drawn) [dp16]
- Tm (APLP1 E2 [1]): a slight stability increase of APLP1 was induced by chain lengths beyond eight sugar rings

Molecule: O=C(O)C1=C[C@H](O)[C@@H](OS(=O)(=O)O)[C@H](O[C@H]2[C@H](O)[C@@H](NS(=O)(=O)O)[C@@H](O[C@H]3[C@H](O)[C@@H](OS(=O)(=O)O)[C@H](O[C@H]4[C@H](O)[C@@H](NS(=O)(=O)O)[C@@H](O[C@H]5[C@H](O)[C@@H](OS(=O)(=O)O)[C@H](O[C@H]6[C@H](O)[C@@H](NS(=O)(=O)O)[C@@H](O[C@H]7[C@H](O)[C@@H](OS(=O)(=O)O)[C@H](O[C@H]8[C@H](O)[C@@H](NS(=O)(=O)O)C(O)O[C@@H]8COS(=O)(=O)O)O[C@H]7C(=O)O)O[C@@H]6COS(=O)(=O)O)O[C@H]5C(=O)O)O[C@@H]4COS(=O)(=O)O)O[C@H]3C(=O)O)O[C@@H]2COS(=O)(=O)O)O1 (stereo partly drawn) [dp8, heparin octasaccharide]
- Tm (APLP1 E2 [1]): 53.5 ± 0.5 °C

Molecule: O=C(O)C1=C[C@H](O)[C@@H](OS(=O)(=O)O)[C@H](O[C@H]2[C@H](O)[C@@H](NS(=O)(=O)O)[C@@H](O[C@H]3[C@H](O)[C@@H](OS(=O)(=O)O)[C@H](O[C@H]4[C@H](O)[C@@H](NS(=O)(=O)O)[C@@H](O[C@H]5[C@H](O)[C@@H](OS(=O)(=O)O)[C@H](O[C@H]6[C@H](O)[C@@H](NS(=O)(=O)O)[C@@H](O[C@H]7[C@H](O)[C@@H](OS(=O)(=O)O)[C@H](O[C@H]8[C@H](O)[C@@H](NS(=O)(=O)O)[C@@H](O[C@H]9[C@H](O)[C@@H](OS(=O)(=O)O)[C@H](O[C@H]%10[C@H](O)[C@@H](NS(=O)(=O)O)[C@@H](O[C@H]%11[C@H](O)[C@@H](OS(=O)(=O)O)[C@H](O[C@H]%12[C@H](O)[C@@H](NS(=O)(=O)O)C(O)O[C@@H]%12COS(=O)(=O)O)O[C@H]%11C(=O)O)O[C@@H]%10COS(=O)(=O)O)O[C@H]9C(=O)O)O[C@@H]8COS(=O)(=O)O)O[C@H]7C(=O)O)O[C@@H]6COS(=O)(=O)O)O[C@H]5C(=O)O)O[C@@H]4COS(=O)(=O)O)O[C@H]3C(=O)O)O[C@@H]2COS(=O)(=O)O)O1 (stereo partly drawn) [dp12, heparin dodecasaccharide]
- X-ray co-crystal structure, 2.5 Å (APLP1 E2 [2]): coordinates of APLP1 E2 in complex with heparin
- Tm (APLP1 E2 [1]): 55.6 ± 0.5 °C

Molecule: O=C(O)C1=C[C@H](O)[C@@H](OS(=O)(=O)O)[C@H](O[C@H]2[C@H](O)[C@@H](NS(=O)(=O)O)[C@@H](O[C@H]3[C@H](O)[C@@H](OS(=O)(=O)O)[C@H](O[C@H]4[C@H](O)[C@@H](NS(=O)(=O)O)C(O)O[C@@H]4COS(=O)(=O)O)O[C@H]3C(=O)O)O[C@@H]2COS(=O)(=O)O)O1 (stereo partly drawn) [dp4, heparin tetrasaccharide]
- Tm (APLP1 E2 [1]): 46.9 ± 0.3 °C

B1: APLP1 E2 domain (amyloid precursor protein-like protein 1, E2 domain) (domain or fragment, human, UniProt P51693 290-495, looked up)
chain: PTDGVDIYFGMPGEISEHEGFLRAKMDLEERRMRQINEVMREWAMADNQSKNLPKADRQALNEHFQSILQTLEEQVSGERQRLVETHATRVIALINDQRRAALEGFLAALQADPPQAERVLLALRRYLRAEQKEQRHTLRHYQHVAAVDPEKAQQMRFQVHTHLQVIEERVNQSLGLLDQNPHLAQELRPQIQELLHSEHLGPSEL
notes: E2 domain of human amyloid precursor protein-like protein 1 (APLP1), amino acids 290-495; Nonglycosylated fraction used; Two protomers in the asymmetric unit of both crystal forms; also called E2 domain of APLP1; apo APLP1 E2
- binding result [3]: binds
